From US7947717B2 (priority 2008, dated 2011)
Read-outs that look alike come from different tables or passages of the source.

What was measured:
[1] = target: BoNT A (Clostridium botulinum, UniProt P0DPI0); assay: biochemical
[2] = target: lethal factor (LF) (Bacillus anthracis, UniProt P15917); assay: biochemical; format: biochemical
Sequence of lethal factor (LF) (P15917 34-809 limits assumed): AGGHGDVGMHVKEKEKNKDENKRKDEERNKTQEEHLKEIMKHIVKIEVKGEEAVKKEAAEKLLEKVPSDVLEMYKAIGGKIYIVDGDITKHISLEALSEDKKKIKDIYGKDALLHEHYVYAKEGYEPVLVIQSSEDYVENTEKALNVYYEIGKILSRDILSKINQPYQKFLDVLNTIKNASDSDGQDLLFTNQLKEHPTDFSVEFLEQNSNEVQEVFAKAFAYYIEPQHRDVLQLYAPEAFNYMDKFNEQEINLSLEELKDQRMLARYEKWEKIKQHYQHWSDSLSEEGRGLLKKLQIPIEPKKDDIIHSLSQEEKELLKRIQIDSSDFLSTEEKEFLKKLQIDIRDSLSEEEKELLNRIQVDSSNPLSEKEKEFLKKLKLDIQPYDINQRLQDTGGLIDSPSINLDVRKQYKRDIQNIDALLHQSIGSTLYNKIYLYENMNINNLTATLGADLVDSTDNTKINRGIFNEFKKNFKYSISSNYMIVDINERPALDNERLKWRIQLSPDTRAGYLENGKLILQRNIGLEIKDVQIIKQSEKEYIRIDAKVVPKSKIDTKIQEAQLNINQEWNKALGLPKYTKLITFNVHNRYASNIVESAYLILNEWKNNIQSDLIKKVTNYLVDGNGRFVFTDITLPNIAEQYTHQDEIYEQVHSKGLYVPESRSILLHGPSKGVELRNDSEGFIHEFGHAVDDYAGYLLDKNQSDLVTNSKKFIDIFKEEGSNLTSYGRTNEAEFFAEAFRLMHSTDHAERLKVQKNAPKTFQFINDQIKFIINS

Sequence of BoNT A (P0DPI0 whole entry, looked up): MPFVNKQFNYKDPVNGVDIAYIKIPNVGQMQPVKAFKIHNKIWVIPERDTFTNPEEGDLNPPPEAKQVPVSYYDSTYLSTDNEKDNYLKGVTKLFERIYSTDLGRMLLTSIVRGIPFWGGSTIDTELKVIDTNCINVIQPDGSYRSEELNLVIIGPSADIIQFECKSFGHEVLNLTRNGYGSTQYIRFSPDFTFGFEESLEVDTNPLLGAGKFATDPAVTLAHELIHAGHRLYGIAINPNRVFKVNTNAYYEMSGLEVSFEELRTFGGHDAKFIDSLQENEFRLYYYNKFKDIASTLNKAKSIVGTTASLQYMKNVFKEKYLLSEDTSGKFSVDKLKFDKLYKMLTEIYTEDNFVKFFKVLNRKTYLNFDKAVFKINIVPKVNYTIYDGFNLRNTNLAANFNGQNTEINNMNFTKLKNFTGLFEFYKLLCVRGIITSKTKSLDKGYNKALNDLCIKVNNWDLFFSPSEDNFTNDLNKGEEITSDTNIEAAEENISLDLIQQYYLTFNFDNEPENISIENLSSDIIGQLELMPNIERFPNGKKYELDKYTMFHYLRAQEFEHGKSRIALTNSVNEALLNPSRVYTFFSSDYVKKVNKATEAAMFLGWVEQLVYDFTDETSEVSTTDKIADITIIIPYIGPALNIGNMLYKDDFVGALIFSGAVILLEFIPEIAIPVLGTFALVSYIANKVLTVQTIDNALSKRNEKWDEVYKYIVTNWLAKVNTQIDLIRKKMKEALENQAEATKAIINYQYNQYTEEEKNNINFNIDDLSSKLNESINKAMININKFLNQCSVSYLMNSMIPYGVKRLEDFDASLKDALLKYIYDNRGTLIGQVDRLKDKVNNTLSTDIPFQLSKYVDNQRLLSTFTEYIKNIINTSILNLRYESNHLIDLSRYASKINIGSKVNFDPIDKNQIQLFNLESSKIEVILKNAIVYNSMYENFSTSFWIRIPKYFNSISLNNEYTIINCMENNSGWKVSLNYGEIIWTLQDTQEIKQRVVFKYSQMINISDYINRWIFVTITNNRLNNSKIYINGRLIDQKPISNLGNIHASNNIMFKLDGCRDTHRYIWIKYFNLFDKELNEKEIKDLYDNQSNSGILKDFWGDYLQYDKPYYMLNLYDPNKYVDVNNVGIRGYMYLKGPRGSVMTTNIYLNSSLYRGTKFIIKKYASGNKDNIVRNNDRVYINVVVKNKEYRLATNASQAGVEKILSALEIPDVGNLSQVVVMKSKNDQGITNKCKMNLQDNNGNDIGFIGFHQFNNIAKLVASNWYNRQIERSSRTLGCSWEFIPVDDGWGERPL

Compound: CN(CCOc1ccc(CC2SC(=O)NC2=O)cc1)c1ccccn1 (centres unmarked) [Compound 2, 5-(4-(2-(methyl(pyridin-2-yl)amino)ethoxy)benzyl)thiazolidine-2,4-dione, reference compound]
- inhibition of BoNT A, kinetic assay (in words) [1]: did not appreciably inhibit
- inhibition of LF, kinetic assay (in words) [2]: did not appreciably inhibit

Compound: O=C(O)CN1C(=O)/C(=C/c2ccc(-c3ccc([N+](=O)[O-])cc3Cl)o2)SC1=S [Compound 4]
- IC50 [1]: 11.8 µM
- IC50 ([2]; pH 7.4, read-out: LF IC50): 2.1 µM

Compound: O=C(O)CC(C(=O)O)N1C(=O)/C(=C/c2ccc(-c3ccc(Br)cc3)o2)SC1=S (centres unmarked) [Compound 5]
- IC50 [1]: 51.6 µM
- IC50 ([2]; pH 7.4, read-out: LF IC50): 3.98 µM

Compound: O=C(O)CCC(C(=O)O)N1C(=O)/C(=C/c2ccc(-c3ccc([N+](=O)[O-])cc3)o2)SC1=S (centres unmarked) [Compound 6]
- IC50 [1]: 148 µM
- IC50 ([2]; pH 7.4, read-out: LF IC50): 4.91 µM

Compound: O=C(O)C(c1ccccc1)N1C(=O)/C(=C/c2ccc(-c3cccc(Cl)c3)o2)SC1=S (centres unmarked) [Compound 8]
- IC50 [1]: 127 µM
- IC50 ([2]; pH 7.4, read-out: LF IC50): 4.34 µM

Compound: O=C1/C(=C/c2ccc(-c3cccc([N+](=O)[O-])c3)o2)SC(=S)N1CCS(=O)(=O)O [Compound 9, (Z)-2-(5-((5-(3-nitrophenyl)furan-2-yl)methylene)-4-oxo-2-thioxothiazolidin-3-yl)ethanesulfonic acid]
- Ki [2]: 0.1 µM
- IC50 ([2]; pH 7.4, read-out: LF IC50): 1.09 µM

Compound: O=C1/C(=C/c2ccc(-c3cccc(Cl)c3)o2)SC(=S)N1CCS(=O)(=O)O [Compound 10, (Z)-2-(5-((5-(3-chlorophenyl)furan-2-yl)methylene)-4-oxo-2-thioxothiazolidin-3-yl)ethanesulfonic acid]
- IC50 [1]: 19.9 µM
- IC50 ([2]; pH 7.4, read-out: LF IC50): 1.7 µM

Compound: O=C1/C(=C/c2ccc(-c3ccc(Cl)c(Cl)c3)o2)SC(=S)N1CCS(=O)(=O)O [Compound 11, (Z)-2-(5-((5-(3,4-dichlorophenyl)furan-2-yl)methylene)-4-oxo-2-thioxothiazolidin-3-yl)ethanesulfonic acid]
- IC50 [1]: 11.1 µM
- IC50 ([2]; pH 7.4, read-out: LF IC50): 1.78 µM

Compound: O=C1/C(=C/c2ccc(-c3ccc(Cl)cc3)o2)SC(=S)N1CCS(=O)(=O)O [Compound 12, (Z)-2-(5-((5-(4-chlorophenyl)furan-2-yl)methylene)-4-oxo-2-thioxothiazolidin-3-yl)ethanesulfonic acid]
- IC50 [1]: > 200 µM

Compound: O=C(O)C(c1ccccc1)N1C(=O)/C(=C/c2ccc(-c3ccc(Cl)cc3Cl)o2)SC1=S (centres unmarked) [Compound 13]
- IC50 [1]: > 200 µM
- Ki [2]: 1 µM
- IC50 ([2]; pH 7.4, read-out: LF IC50): 1.2 µM

Compound: O=C1/C(=C/c2ccc(-c3cccc(Cl)c3Cl)o2)SC(=S)N1C1CCS(=O)(=O)C1 (centres unmarked) [Compound 14, (5Z)-5-{[5-(2,3-dichlorophenyl)-2-furyl]methylene}-3-(1,1-dioxidotetrahydrothien-3-yl)-2-thioxo-1,3-thiazolidin-4-one]
- IC50 [1]: > 200 µM

Compound: O=C1/C(=C/c2ccc(-c3cc(Cl)ccc3Cl)o2)SC(=S)N1CC1CCCO1 (centres unmarked) [Compound 16, (Z)-5-((5-(2,5-dichlorophenyl)furan-2-yl)methylene)-3-((tetrahydrofuran-2-yl)methyl)-2-thioxothiazolidin-4-one]
- IC50 [1]: > 50 µM

Compound: Cc1nc(/C=C2\SC(=S)N(CC(=O)O)C2=O)c(C)o1 [Compound 17, (Z)-2-(5-((2,5-dimethyloxazol-4-yl)methylene)-4-oxo-2-thioxothiazolidin-3-yl)acetic acid]
- IC50 [1]: > 200 µM
- IC50 ([2]; pH 7.4, read-out: LF IC50): 100 µM

Compound: CC(C)(C)OC(=O)N1CCC(c2nc(/C=C3\SC(=S)N(CC(=O)O)C3=O)cs2)CC1 [Compound 18, (Z)-2-(5-((2-(1-(tert-butoxycarbonyl)piperidin-4-yl)thiazol-4-yl)methylene)-4-oxo-2-thioxothiazolidin-3-yl)acetic acid]
- IC50 [1]: 176 µM
- IC50 ([2]; pH 7.4, read-out: LF IC50): 20 µM

Compound: Cc1nc(-c2ccccc2)c(/C=C2\SC(=S)N(CC(=O)O)C2=O)s1 [Compound 19, (Z)-2-(5-((2-methyl-4-phenylthiazol-5-yl)methylene)-4-oxo-2-thioxothiazolidin-3-yl)acetic acid]
- IC50 [1]: > 200 µM
- IC50 ([2]; pH 7.4, read-out: LF IC50): 41 µM

Compound: O=C(O)CN1C(=O)/C(=C/c2c[nH]nc2-c2ccc(C(F)(F)F)cc2)SC1=S [Compound 27, (Z)-2-(4-oxo-2-thioxo-5-((3-(4-(trifluoromethyl)phenyl)-1H-pyrazol-4-yl)methylene)thiazolidin-3-yl)acetic acid]
- IC50 [1]: > 200 µM
- IC50 [2]: 24.6 µM

Compound: O=C(O)CN1C(=O)/C(=C/c2cc(-c3ccc(Cl)cc3)[nH]n2)SC1=S [Compound 28]
- IC50 [1]: > 200 µM
- IC50 [2]: > 100 µM

Compound: O=C(O)CN1C(=O)/C(=C/c2cn(-c3ccccc3)nc2-c2cccs2)SC1=S [Compound 29, (Z)-2-(4-oxo-5-((1-phenyl-3-(thiophen-2-yl)-1H-pyrazol-4-yl)methylene)-2-thioxothiazolidin-3-yl)acetic acid]
- IC50 [1]: 160 µM
- IC50 ([2]; pH 7.4, read-out: LF IC50): 3.07 µM

Compound: O=C(O)CN1C(=O)/C(=C/c2cn(-c3ccccc3)nc2-c2ccccc2)SC1=S [Compound 30, (Z)-2-(5-((1,3-diphenyl-1H-pyrazol-4-yl)methylene)-4-oxo-2-thioxothiazolidin-3-yl)acetic acid]
- IC50 [1]: 111 µM
- IC50 ([2]; pH 7.4, read-out: LF IC50): 6.25 µM

Compound: O=C(O)CN1C(=O)/C(=C/c2cn(-c3ccccc3)nc2-c2ccc(S(=O)(=O)N3CCOCC3)cc2)SC1=S [Compound 31]
- IC50 [1]: > 200 µM
- IC50 ([2]; pH 7.4, read-out: LF IC50): 4.26 µM

Compound: COc1ccc(-c2nn(-c3ccccc3)cc2/C=C2\SC(=S)N(CC(=O)O)C2=O)cc1C [Compound 36, (Z)-2-(5-((3-(4-methoxy-3-methylphenyl)-1-phenyl-1H-pyrazol-4-yl)methylene)-4-oxo-2-thioxothiazolidin-3-yl)acetic acid]
- IC50 [1]: 127 µM
- IC50 ([2]; pH 7.4, read-out: LF IC50): 3.58 µM

Compound: CCOc1ccc(-c2nn(-c3ccccc3)cc2/C=C2\SC(=S)N(CC(=O)O)C2=O)c(C)c1 [Compound 37, (Z)-2-(5-((3-(4-ethoxy-2-methylphenyl)-1-phenyl-1H-pyrazol-4-yl)methylene)-4-oxo-2-thioxothiazolidin-3-yl)acetic acid]
- IC50 [1]: 130 µM
- IC50 ([2]; pH 7.4, read-out: LF IC50): 4.87 µM

Compound: O=C1/C(=C/c2cn(-c3ccccc3)nc2-c2ccc(S(=O)(=O)N3CCOCC3)cc2)SC(=S)N1CCS(=O)(=O)O [Compound 42, (Z)-2-(5-((3-(4-(morpholinosulfonyl)phenyl)-1-phenyl-1H-pyrazol-4-yl)methylene)-4-oxo-2-thioxothiazolidin-3-yl)ethanesulfonic acid]
- IC50 [1]: 85 µM
- IC50 ([2]; pH 7.4, read-out: LF IC50): 1.86 µM

Compound: O=C1/C(=C/c2cn(-c3ccccc3)nc2-c2ccc(S(=O)(=O)N3CCCCC3)cc2)SC(=S)N1CCS(=O)(=O)O [Compound 43, (Z)-2-(4-oxo-5-((1-phenyl-3-(4-(piperidin-1-ylsulfonyl)phenyl)-1H-pyrazol-4-yl)methylene)-2-thioxothiazolidin-3-yl)ethanesulfonic acid]
- IC50 [1]: 20.1 µM
- IC50 ([2]; pH 7.4, read-out: LF IC50): 2.07 µM

Compound: O=C1/C(=C/c2cn(-c3ccccc3)nc2-c2ccccc2)SC(=S)N1C1CCS(=O)(=O)C1 (centres unmarked) [Compound 44, 3-(1,1-Dioxo-tetrahydro-thiophen-3-yl)-5-[1-(1,3-diphenyl-1H-pyrazol-4-yl)-meth-(Z)-ylidene]-2-thioxo-thiazolidin-4-one]
- IC50 [1]: > 200 µM

Compound: O=C1/C(=C/c2cn(-c3ccccc3)nc2-c2ccc(Cl)cc2)SC(=S)N1C1CCS(=O)(=O)C1 (centres unmarked) [Compound 45, 5-[1-[3-(4-Chloro-phenyl)-1-phenyl-1H-pyrazol-4-yl]-meth-(Z)-ylidene]-3-(1,1-dioxo-tetrahydro-thiophen-3-yl)-2-thioxo-thiazolidin-4-one]
- IC50 [1]: > 200 µM

Compound: CCOc1ccc(-c2nn(-c3ccccc3)cc2/C=C2\SC(=S)N(CC(=O)O)C2=O)cc1F [Compound 46, (Z)-2-(5-((3-(4-ethoxy-3-fluorophenyl)-1-phenyl-1H-pyrazol-4-yl)methylene)-4-oxo-2-thioxothiazolidin-3-yl)acetic acid]
- IC50 [1]: > 200 µM
- IC50 ([2]; pH 7.4, read-out: LF IC50): 3.45 µM

Compound: O=C(O)CN1C(=O)/C(=C/c2ccc(-c3ccccc3)cc2)SC1=S [Compound 49, (Z)-2-(5-(4-phenylbenzylidene)-4-oxo-2-thioxothiazolidin-3-yl)acetic acid]
- IC50 [1]: 54.6 µM
- IC50 ([2]; pH 7.4, read-out: LF IC50): 6.2 µM

Compound: O=C(O)CN1C(=O)/C(=C/c2cccc(N3CCCC3)c2)SC1=S [Compound 50, (Z)-2-(5-(3-(pyrrolidin-1-yl)benzylidene)-4-oxo-2-thioxothiazolidin-3-yl)acetic acid]
- IC50 [1]: > 200 µM
- IC50 ([2]; pH 7.4, read-out: LF IC50): 28.1 µM

Compound: CN1CCCN(c2ccc(/C=C3\SC(=S)N(CC(=O)O)C3=O)cc2)CC1 [Compound 51]
- IC50 [1]: > 50 µM

Compound: O=C(O)CN1C(=O)/C(=C/c2cccc(-n3cccn3)c2)SC1=S [Compound 52, (Z)-2-(5-(3-(1H-pyrazol-1-yl)benzylidene)-4-oxo-2-thioxothiazolidin-3-yl)acetic acid]
- IC50 [1]: > 200 µM
- IC50 ([2]; pH 7.4, read-out: LF IC50): 27.9 µM

Compound: O=C(O)CN1C(=O)/C(=C/c2ccc3c(c2)OCO3)SC1=S [Compound 53, (Z)-2-(5-(benzo[d][1,3]dioxol-5-ylmethylene)-4-oxo-2-thioxothiazolidin-3-yl)acetic acid]
- IC50 [1]: > 200 µM
- IC50 ([2]; pH 7.4, read-out: LF IC50): 83.3 µM

Compound: O=C(O)CN1C(=O)/C(=C/c2cccc3c2oc2ccccc23)SC1=S [Compound 55, (Z)-2-(5-(dibenzofuran-6-ylmethylene)-4-oxo-2-thioxothiazolidin-3-yl)acetic acid]
- IC50 [1]: 160 µM
- IC50 ([2]; pH 7.4, read-out: LF IC50): 2.96 µM

Compound: O=C(O)CN1C(=O)/C(=C/c2cccc(Br)n2)SC1=S [Compound 56, (Z)-2-(5-((6-bromopyridin-2-yl)methylene)-4-oxo-2-thioxothiazolidin-3-yl)acetic acid]
- IC50 [1]: > 200 µM
- IC50 ([2]; pH 7.4, read-out: LF IC50): 58 µM

Compound: O=C(O)CN1C(=O)/C(=C/c2csc3ccccc23)SC1=S [Compound 57, (Z)-2-(5-(benzo[b]thiophen-3-ylmethylene)-4-oxo-2-thioxothiazolidin-3-yl)acetic acid]
- IC50 [1]: > 200 µM
- IC50 ([2]; pH 7.4, read-out: LF IC50): 13 µM

Compound: O=C(O)CN1C(=O)/C(=C/c2cc3nccnc3s2)SC1=S [Compound 59]
- IC50 [1]: > 200 µM
- IC50 ([2]; pH 7.4, read-out: LF IC50): 24.9 µM

Compound: O=C(O)CN1C(=O)/C(=C/c2c[nH]c3ccccc23)SC1=S [Compound 60, (Z)-2-(5-((1H-indol-3-yl)methylene)-4-oxo-2-thioxothiazolidin-3-yl)acetic acid]
- IC50 [1]: > 200 µM
- IC50 ([2]; pH 7.4, read-out: LF IC50): 38.7 µM

Compound: O=C(O)CN1C(=O)/C(=C/c2c[nH]c3ccc(Br)cc23)SC1=S [Compound 61, (Z)-2-(5-((5-bromo-1H-indol-3-yl)methylene)-4-oxo-2-thioxothiazolidin-3-yl)acetic acid]
- IC50 [1]: > 200 µM
- IC50 ([2]; pH 7.4, read-out: LF IC50): 7.04 µM
